From ChEMBL document CHEMBL5120960, “Unveiling the Structure-Activity Relationships at the Orthosteric Binding Site of P2X Ion Channels: The Route to Selectivity” (J Med Chem, 2022)

Tests used:
Format in all cases: cell-based
P2X purinoceptor 7 [1] = target: T1, P2X purinoceptor 7 (Homo sapiens, UniProt Q99572); assay: […] activity at human P2X7R expressing HEK293 cells assessed as reduction in intracellular Ca2+ influx pretreated with Fluo-4 for 1 hr followed by compound addition and further incubated for 30 mins in presence of ATP by multimode plate reader analysis
T1 sequence (Q99572 whole entry): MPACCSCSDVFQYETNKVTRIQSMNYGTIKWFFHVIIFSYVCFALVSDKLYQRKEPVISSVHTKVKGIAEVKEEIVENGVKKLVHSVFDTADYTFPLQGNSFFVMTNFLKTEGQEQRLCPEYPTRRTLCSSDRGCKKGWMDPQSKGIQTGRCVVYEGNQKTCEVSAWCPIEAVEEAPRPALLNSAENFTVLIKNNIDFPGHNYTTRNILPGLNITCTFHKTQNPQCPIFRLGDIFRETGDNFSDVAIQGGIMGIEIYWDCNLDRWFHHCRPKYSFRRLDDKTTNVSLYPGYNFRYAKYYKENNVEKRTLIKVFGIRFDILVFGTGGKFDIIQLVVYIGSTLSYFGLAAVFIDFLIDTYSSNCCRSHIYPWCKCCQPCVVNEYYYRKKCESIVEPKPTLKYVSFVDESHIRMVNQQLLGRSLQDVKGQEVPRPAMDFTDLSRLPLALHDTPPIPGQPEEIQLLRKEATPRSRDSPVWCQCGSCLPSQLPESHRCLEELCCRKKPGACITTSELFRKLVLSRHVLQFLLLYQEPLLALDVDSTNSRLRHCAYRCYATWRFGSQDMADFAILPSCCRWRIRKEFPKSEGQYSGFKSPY

P2X purinoceptor 2 [2] = target: T2, P2X purinoceptor 2 (Homo sapiens, UniProt Q9UBL9); assay: […] activity at human P2X2R expressing CHO cells assessed as reduction in intracellular Ca2+ influx pretreated with Fluo-4 for 1 hr followed by compound addition and further incubated for 30 mins in presence of ATP by multimode plate reader analysis
T2 sequence (Q9UBL9 whole entry): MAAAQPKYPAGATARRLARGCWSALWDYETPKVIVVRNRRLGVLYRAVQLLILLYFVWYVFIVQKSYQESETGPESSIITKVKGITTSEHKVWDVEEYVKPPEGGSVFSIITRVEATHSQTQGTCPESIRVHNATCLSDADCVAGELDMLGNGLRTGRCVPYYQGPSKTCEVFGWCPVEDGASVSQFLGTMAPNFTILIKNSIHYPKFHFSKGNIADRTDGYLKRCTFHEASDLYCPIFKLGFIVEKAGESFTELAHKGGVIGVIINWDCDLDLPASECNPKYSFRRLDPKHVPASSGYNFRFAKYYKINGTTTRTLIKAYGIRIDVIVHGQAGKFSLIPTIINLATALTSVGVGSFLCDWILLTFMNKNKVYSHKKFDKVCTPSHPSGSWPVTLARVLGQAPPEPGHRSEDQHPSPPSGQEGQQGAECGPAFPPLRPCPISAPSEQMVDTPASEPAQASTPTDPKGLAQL

[3] = target: T3, P2X2/P2X3 heterotrimeric receptor (Homo sapiens, UniProt P56373+Q9UBL9); assay: […] activity at human P2X2R/P2X3R expressing CHO cells assessed as reduction in intracellular Ca2+ influx pretreated with Fluo-4 for 1 hr followed by compound addition and further incubated for 30 mins in presence of ATP by multimode plate reader analysis
T3 sequence (Q9UBL9 whole entry): T2 sequence (Q9UBL9 whole entry)
T3 sequence (P56373 whole entry): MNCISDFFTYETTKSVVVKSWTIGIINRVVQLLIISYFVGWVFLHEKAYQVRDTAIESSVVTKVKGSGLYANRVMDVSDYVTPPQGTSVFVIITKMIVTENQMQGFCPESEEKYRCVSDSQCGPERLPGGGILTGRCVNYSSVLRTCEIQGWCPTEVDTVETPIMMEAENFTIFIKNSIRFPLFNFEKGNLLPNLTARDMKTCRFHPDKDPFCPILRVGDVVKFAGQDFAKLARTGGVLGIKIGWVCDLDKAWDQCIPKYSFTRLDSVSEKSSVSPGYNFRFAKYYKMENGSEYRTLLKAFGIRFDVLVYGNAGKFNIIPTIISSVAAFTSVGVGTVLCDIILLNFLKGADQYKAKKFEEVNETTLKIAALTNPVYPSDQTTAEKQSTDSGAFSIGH

P2X purinoceptor 1 [4] = target: T4, P2X purinoceptor 1 (Homo sapiens, UniProt P51575); assay: […] activity at human P2X1R expressing CHO cells assessed as reduction in intracellular Ca2+ influx pretreated with Fluo-4 for 1 hr followed by compound addition and further incubated for 30 mins in presence of ATP by multimode plate reader analysis
T4 sequence (P51575 whole entry): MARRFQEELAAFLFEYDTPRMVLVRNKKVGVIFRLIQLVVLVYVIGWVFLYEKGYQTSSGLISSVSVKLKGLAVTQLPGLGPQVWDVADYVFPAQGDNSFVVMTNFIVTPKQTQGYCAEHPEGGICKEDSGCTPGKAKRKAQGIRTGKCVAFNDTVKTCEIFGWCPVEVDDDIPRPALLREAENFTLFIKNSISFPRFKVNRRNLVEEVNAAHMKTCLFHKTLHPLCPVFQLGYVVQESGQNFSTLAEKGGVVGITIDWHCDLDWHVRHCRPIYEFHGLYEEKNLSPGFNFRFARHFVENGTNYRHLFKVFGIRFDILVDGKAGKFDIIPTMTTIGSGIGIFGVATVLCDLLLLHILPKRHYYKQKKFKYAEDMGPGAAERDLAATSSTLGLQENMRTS

P2X purinoceptor 7 [5] = target: T1, P2X purinoceptor 7; assay: […] activity at human P2X7R expressed in HEK293 cells assessed as reduction in YO-PRO-1 iodide dye uptake preincubated for 30 mins followed by YO-PRO-1 iodide addition and measured after 2 hrs by fluorescence based multimode plate reader analysis
P2X purinoceptor 3 [6] = target: T5, P2X purinoceptor 3 (Homo sapiens, UniProt P56373); assay: […] activity at human P2X3R expressing CHO cells assessed as reduction in intracellular Ca2+ influx pretreated with Fluo-4 for 1 hr followed by compound addition and further incubated for 30 mins in presence of ATP by multimode plate reader analysis
T5 sequence (P56373 whole entry): T3 sequence (P56373 whole entry)

P2X purinoceptor 4 [7] = target: T6, P2X purinoceptor 4 (Homo sapiens, UniProt Q99571); assay: […] activity at human P2X4R expressing HEK293 cells assessed as reduction in intracellular Ca2+ influx pretreated with Fluo-4 for 1 hr followed by compound addition and further incubated for 30 mins in presence of ATP by multimode plate reader analysis
T6 sequence (Q99571 whole entry): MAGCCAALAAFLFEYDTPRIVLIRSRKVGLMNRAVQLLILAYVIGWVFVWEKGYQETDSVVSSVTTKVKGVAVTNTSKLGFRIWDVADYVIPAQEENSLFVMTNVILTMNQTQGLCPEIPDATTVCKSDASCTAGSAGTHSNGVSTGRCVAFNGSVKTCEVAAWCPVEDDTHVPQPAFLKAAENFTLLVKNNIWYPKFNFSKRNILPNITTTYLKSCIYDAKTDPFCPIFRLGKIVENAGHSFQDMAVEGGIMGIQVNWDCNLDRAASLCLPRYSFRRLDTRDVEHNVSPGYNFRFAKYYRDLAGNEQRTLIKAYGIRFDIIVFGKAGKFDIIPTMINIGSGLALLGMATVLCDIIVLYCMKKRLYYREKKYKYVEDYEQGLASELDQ

P2X purinoceptor 4 [8] = target: T6, P2X purinoceptor 4; assay: Antagonist activity at human P2X4R expressing HEK293 cells assessed as reduction in intracellular Ca2+ influx pretreated with Fluo-4 for 1 hr followed by compound addition and further incubated for 30 mins in presence of ATP by multimode plate reader analysis
[9] = target: T3, P2X2/P2X3 heterotrimeric receptor; assay: Antagonist activity at human P2X2R/P2X3R expressing CHO cells assessed as reduction in intracellular Ca2+ influx pretreated with Fluo-4 for 1 hr followed by compound addition and further incubated for 30 mins in presence of ATP by multimode plate reader analysis
P2X purinoceptor 2 [10] = target: T2, P2X purinoceptor 2; assay: Antagonist activity at human P2X2R expressing CHO cells assessed as reduction in intracellular Ca2+ influx pretreated with Fluo-4 for 1 hr followed by compound addition and further incubated for 30 mins in presence of ATP by multimode plate reader analysis
P2X purinoceptor 1 [11] = target: T4, P2X purinoceptor 1; assay: Antagonist activity at human P2X1R expressing CHO cells assessed as reduction in intracellular Ca2+ influx pretreated with Fluo-4 for 1 hr followed by compound addition and further incubated for 30 mins in presence of ATP by multimode plate reader analysis
P2X purinoceptor 7 [12] = target: T1, P2X purinoceptor 7; assay: Antagonist activity at human P2X7R expressing HEK293 cells assessed as reduction in intracellular Ca2+ influx pretreated with Fluo-4 for 1 hr followed by compound addition and further incubated for 30 mins in presence of ATP by multimode plate reader analysis
P2X purinoceptor 3 [13] = target: T5, P2X purinoceptor 3; assay: Antagonist activity at human P2X3R expressing CHO cells assessed as reduction in intracellular Ca2+ influx pretreated with Fluo-4 for 1 hr followed by compound addition and further incubated for 30 mins in presence of ATP by multimode plate reader analysis

Row | SMILES | IC50 (P2X purinoceptor 7 [1]) | IC50 (P2X purinoceptor 2 [2]) | IC50 [3] | IC50 (P2X purinoceptor 1 [4]) | IC50 (P2X purinoceptor 7 [5]) | IC50 (P2X purinoceptor 3 [6]) | IC50 (P2X purinoceptor 4 [7]) | EC50 (P2X purinoceptor 7 [1]) | IC50 (P2X purinoceptor 4 [8]) | IC50 [9] | IC50 (P2X purinoceptor 2 [10]) | EC50 (P2X purinoceptor 2 [2]) | IC50 (P2X purinoceptor 1 [11]) | EC50 [3] | EC50 (P2X purinoceptor 1 [4]) | IC50 (P2X purinoceptor 7 [12]) | EC50 (P2X purinoceptor 7 [5]) | EC50 (P2X purinoceptor 3 [6]) | IC50 (P2X purinoceptor 3 [13]) | EC50 (P2X purinoceptor 4 [7])
1 | O=P(O)(O)OP(=O)(O)OP(=O)(O)OC[C@H]1O[C@@H](n2cnc3c(S)ncnc32)[C@H](O)[C@@H]1O | > 100 µM | > 100 µM | 0.00832 µM | 1.51 µM | > 100 µM | 1.51 µM | > 100 µM | – | – | – | – | – | – | – | – | – | – | – | – | –
2 | O=P(O)(O)OP(=O)(O)OP(=O)(O)OC[C@H]1O[C@@H](n2cnc3c(NCc4ccccc4)ncnc32)[C@H](O)[C@@H]1O | > 100 µM | 3.98 µM | 2.69 µM | > 100 µM | > 100 µM | > 100 µM | > 100 µM | – | – | – | – | – | – | – | – | – | – | – | – | –
3 | O=c1[nH]c2cncnc2n1[C@@H]1O[C@H](COP(=O)(O)OP(=O)(O)OP(=O)(O)O)[C@@H](O)[C@H]1O | > 100 µM | > 100 µM | > 100 µM | > 100 µM | > 100 µM | 11 µM | > 100 µM | – | – | – | – | – | – | – | – | – | – | – | – | –
4 | CCCCNc1ncnc2c1ncn2[C@@H]1O[C@H](COP(=O)(O)OP(=O)(O)OP(=O)(O)O)[C@@H](O)[C@H]1O | > 100 µM | > 100 µM | 0.692 µM | > 100 µM | > 100 µM | 30.2 µM | > 100 µM | – | – | – | – | – | – | – | – | – | – | – | – | –
5 | Nc1ncnc2c1ncn2[C@@H]1O[C@H](COP(=O)(O)OP(=O)(O)OP(=O)(O)O)[C@@H](OC(=O)c2ccccc2)[C@H]1OC(=O)c1ccccc1 | – | – | – | – | – | – | – | > 100 µM | > 100 µM | > 100 µM | 26.3 µM | > 100 µM | > 100 µM | 1.2 µM | > 100 µM | > 100 µM | > 100 µM | > 100 µM | > 100 µM | 1.48 µM
6 | O=P(O)(O)OP(=O)(O)OP(=O)(O)OC[C@H]1O[C@@H](n2cnc3c2ncn2ccnc32)[C@H](O)[C@@H]1O | > 100 µM | 0.417 µM | 0.282 µM | > 100 µM | > 100 µM | 1 µM | > 100 µM | – | – | – | – | – | – | – | – | – | – | – | – | –
7 | O=P(O)(O)OP(=O)(O)OP(=O)(O)OC[C@H]1O[C@@H](n2cnc3c(Nc4ccccc4)ncnc32)[C@H](O)[C@@H]1O | > 100 µM | 0.00372 µM | 0.158 µM | > 100 µM | > 100 µM | 0.209 µM | 0.891 µM | – | – | – | – | – | – | – | – | – | – | – | – | –
